This is an account of results in patent publication US20150296786A1, “SYNERGISTIC COMBINATION OF A ZOXAMIDE COMPOUND AND ONE OF DCOIT OR OIT FOR DRY FILM PROTECTION” (ROHM AND HAAS COMPANY, priority 2012, published 2015).

The test system of test [1] is Chlorella sp. ATCC 7516. In words: Algal efficacy testing of dry paint films (modified ASTM 5589, 6-well plates). It counts as cell-based. The settings on record: 504 h, 3 weeks, visible algal growth vs blank, pass level ≧75%; for inhibition at 1000 ppm: total conc 1000 ppm in paint. Here is the method: (§1) Sample preparation for antimicrobial testing was performed as follows:
(§2) Slurries containing 33% antimicrobial active ingredient (Zoxamide) were post added to a white, acrylic/silicone based outdoor paint free of biocides to give a total active ingredient concentration of 10000 and 1000 ppm respectively. KATHON™ 893T (100% OIT) and ROCIMA™ 200 (20% DCOIT) were post added to a white, acrylic/silicone based outdoor paint free of biocides to give a total active ingredient concentration of 10000 and 1000 ppm respectively. These paints were then diluted with an antimicrobial free acrylic/silicone based paint and mixed to prepare targeted concentrations of antimicrobial compounds for the testing. The total biocides concentrations tested were 125, 250, 500, 1000, 2000 and 5000 ppm. After biocides addition or dilution, the paints were mixed 90 seconds with the horse power shaker (AXEL 75M3372/Agitateur SO-10MI) until uniformity was achieved. Paints containing different antimicrobial compounds at the same levels were mixed together in order to obtain the desired ratio of antimicrobial compounds. After one day, the paints were applied to Schleicher & Schuell filter paper at 280μm wet film thickness and dried for 3 days at room temperature avoiding direct exposure to sunlight. Square discs (1.6 cm×1.6 cm) were cut out from each panel and were used as the substrate for algal efficacy tests. This sample size allowed for an agar border when the sample disc was placed into the well of the test plate.
(§3) Algal efficacy was tested according to modified ASTM 5589 which is a standard accelerated test method for determining resistance of various coatings (including paints) to algal defacement. To accommodate for high-throughput screening, this method was scaled down from petri dishes to 6-well plates. Bold Modified Basal Freshwater Nutrient Solution was used as growth medium. A single coated filter paper coupon was placed with a pair of sterile forceps at the center of the agar plug (on top) with the painted surface facing upwards. Algal inoculums were prepared by mixing equal concentrations (1×10^6 cfu/ml) and equal volumes of exponentially growing algae cultures.
(§4) Each well that contains a tested coupon was inoculated with 1750 μl of algal suspensions (1×10^6 cfu/ml) making sure that the whole surface (paint film as well as the agar surrounding it) was evenly covered. The plates were incubated at room temp (21° C.-25° C.) with cyclic exposure to light and dark phases, for a period of three weeks.
(§5) At the end of the three week incubation period, the samples were scored for percent inhibition regarding visible algal growth compared to the blank sample (0% inhibition).
(§6) The Synergy Index calculation was performed as follows.
(§7) The SI is calculated based on F. C. Kull et.
(§8) SI value of <1 in the formula indicates a synergism of the blended biocides exists.
(§9) The minimal targeted inhibition was set at 75%, meaning a coupon with at least 75% algal growth inhibition was considered as a pass.

Test [2] relates to Stichococcus bacillaris SAG 379-1a / CCAP 379/1a. Described as above. In kind it is cell-based. Conditions: 504 h, 3 weeks, visible algal growth vs blank, pass level ≧75%. Here is the method: as §1, §2, §3, §4, §5, §6, §7, §8, §9

Take `CCCCCCCCn1sccc1=O` [OIT, 2-n-octyl-4-isothiazolin-3-one]: the inhibition (as a rule, how much of the control response was suppressed) at 1000 ppm in test [1] was 95%. Regarding `CCC(C)(NC(=O)c1cc(Cl)c(C)c(Cl)c1)C(=O)CCl` (centres unmarked) [Zoxamide], the inhibition at 5000 ppm in test [1] (total conc 5000 ppm in paint) turned out to be 60%; in test [2] (total conc 5000 ppm in paint), 45%. Turning to `CCCCCCCCn1sc(Cl)c(Cl)c1=O` [DCOIT, 4,5-dichloro-2-n-octyl-4-isothiazolin-3-one], the inhibition at 1000 ppm in test [1] and in test [2] (total conc 1000 ppm in paint) was 85% each time.
